Test results: ChEMBL document CHEMBL1201862, “PubChem BioAssay data set” (2004)
Calls of active or inactive are those of the source.

Assays:
[1] = molecular target: Sphingosine 1-phosphate receptor 4 (Homo sapiens, UniProt O95977); test: Fluorescence dose response cell-based high throughput screening assay for antagonists of the Sphingosine 1-Phosphate Receptor 4 (S1P4). [Related pubchem assays: 1524 (Confirmation in triplicates.), 1510 (Primary screen.)]; type: functional
CHO = test: cytotoxicity in TLR9-MyD88 CHO cells, dose response, cytotoxicity control for TLR9-MyD88 binding inhibitor project, cell-based, luminescence (AID 588339); type: functional, hamster; conditions: Cricetulus griseus;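 further: CHO cells stably coexpressing TLR9 and MyD88 fusions from primary screen; compound exposure lasted 48 hours before viability readout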
Orexin receptor type 2 = Orexin receptor type 2 (Homo sapiens, UniProt O43614); test: Counterscreen assay for antagonists of the orexin 1 receptor (OX1R; HCRTR1): Fluorescence-based cell-based dose response assay for antagonists of the orexin 2 receptor (OX2R; HCRTR2), run by assay provider.; type: functional
[2] = molecular target: T1, Alkaline phosphatase, tissue-nonspecific isozyme (Homo sapiens, UniProt P05186); test: TNAP enzyme inhibition by screening hits, dose response, selectivity assay for mouse IAP inhibitor project, biochemical, human TNAP, uHTS hits (AID 488906); type: functional
T1 sequence (P05186 whole entry): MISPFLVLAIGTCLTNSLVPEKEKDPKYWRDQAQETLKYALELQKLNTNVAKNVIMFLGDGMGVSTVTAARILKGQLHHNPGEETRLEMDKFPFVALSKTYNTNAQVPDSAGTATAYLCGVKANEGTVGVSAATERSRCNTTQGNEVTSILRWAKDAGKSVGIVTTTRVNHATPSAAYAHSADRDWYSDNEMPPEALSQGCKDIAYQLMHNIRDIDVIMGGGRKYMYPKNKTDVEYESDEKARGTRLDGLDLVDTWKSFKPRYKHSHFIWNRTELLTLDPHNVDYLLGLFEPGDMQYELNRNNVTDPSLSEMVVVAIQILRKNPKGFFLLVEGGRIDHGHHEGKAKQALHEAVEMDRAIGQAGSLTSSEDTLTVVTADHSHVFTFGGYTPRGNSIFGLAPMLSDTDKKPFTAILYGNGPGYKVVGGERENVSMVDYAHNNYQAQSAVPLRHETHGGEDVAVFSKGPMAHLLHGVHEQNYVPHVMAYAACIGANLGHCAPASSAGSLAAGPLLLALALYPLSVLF

[3] = molecular target: T2, 1-phosphatidylinositol 4,5-bisphosphate phosphodiesterase gamma-1 (Homo sapiens, UniProt P19174); test: Counterscreen for inhibitors of phospholipase C isozymes (PLC-B3): Fluorescence-based biochemical high throughput dose response assay to identify inhibitors of phospholipase C isozymes (PLC-gamma1).
T2 sequence (P19174 whole entry): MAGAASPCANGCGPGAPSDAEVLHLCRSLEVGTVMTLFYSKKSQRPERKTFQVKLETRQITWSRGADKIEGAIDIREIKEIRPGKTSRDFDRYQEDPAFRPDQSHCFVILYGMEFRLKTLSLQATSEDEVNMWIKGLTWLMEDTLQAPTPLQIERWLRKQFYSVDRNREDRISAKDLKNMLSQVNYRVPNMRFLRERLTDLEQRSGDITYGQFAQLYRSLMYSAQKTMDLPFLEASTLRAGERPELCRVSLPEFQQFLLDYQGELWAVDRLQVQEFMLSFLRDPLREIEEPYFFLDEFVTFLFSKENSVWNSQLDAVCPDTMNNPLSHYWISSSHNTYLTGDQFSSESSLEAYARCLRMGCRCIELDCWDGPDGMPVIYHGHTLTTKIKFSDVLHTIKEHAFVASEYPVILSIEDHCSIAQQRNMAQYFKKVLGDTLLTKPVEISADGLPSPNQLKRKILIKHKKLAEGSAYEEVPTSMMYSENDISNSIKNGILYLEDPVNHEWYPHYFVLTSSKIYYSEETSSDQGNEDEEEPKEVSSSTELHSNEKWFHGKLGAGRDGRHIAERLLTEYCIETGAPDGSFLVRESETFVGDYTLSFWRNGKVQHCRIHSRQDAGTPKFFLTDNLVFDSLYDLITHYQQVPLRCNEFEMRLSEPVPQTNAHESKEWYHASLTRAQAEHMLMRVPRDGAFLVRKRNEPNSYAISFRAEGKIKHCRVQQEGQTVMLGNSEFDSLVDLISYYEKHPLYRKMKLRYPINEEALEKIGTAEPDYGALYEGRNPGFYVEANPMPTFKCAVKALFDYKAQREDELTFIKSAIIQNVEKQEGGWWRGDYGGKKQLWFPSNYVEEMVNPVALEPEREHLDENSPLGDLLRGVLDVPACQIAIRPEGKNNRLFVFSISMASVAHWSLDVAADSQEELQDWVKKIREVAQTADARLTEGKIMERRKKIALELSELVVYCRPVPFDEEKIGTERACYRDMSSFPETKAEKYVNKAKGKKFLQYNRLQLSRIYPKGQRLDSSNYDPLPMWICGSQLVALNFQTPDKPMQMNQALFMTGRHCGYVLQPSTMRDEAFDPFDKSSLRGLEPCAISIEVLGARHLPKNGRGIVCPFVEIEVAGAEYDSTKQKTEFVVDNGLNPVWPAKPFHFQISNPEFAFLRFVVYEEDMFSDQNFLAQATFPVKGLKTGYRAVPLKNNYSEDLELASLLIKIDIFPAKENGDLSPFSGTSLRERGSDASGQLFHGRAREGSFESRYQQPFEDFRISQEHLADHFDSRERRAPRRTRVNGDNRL

[4] = molecular target: Cyclin-dependent kinase 9 (Homo sapiens, UniProt P50750); type: functional;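 further: value from the CDK9 entry of a kinome-spanning kinase panel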
[5] = molecular target: Ribosomal protein S6 kinase alpha-3 (Homo sapiens, UniProt P51812); type: functional;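 further: measured within a kinome-wide profiling panel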
Activin receptor type-1 = Activin receptor type-1 (Homo sapiens, UniProt Q04771); test: Navigating the Kinome. Panel member name: ACVR1; type: functional
[6] = molecular target: Serine/threonine-protein kinase Chk1 (Homo sapiens, UniProt O14757); type: functional;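 further: measured as one member of a kinome-wide kinase profiling panel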
[7] = molecular target: Cyclin-dependent kinase 19 (Homo sapiens, UniProt Q9BWU1); test: Navigating the Kinome. Panel member name: CDC2L6; type: functional
cells = type: functional, cell-based
[8] = CEM21 lymphoblast cell cytotoxicity, dose response, cytotoxicity control for viral fusion inhibitor project, CellTiter-Glo luminescence, cherry-picked (AID 652042); type: functional, cell-based;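 further: potency for signal decrease meaning cytotoxicity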
[9] = inhibitors of clade B AD8 Env fusion, dose response, cell-based, cherry-pick (AID 652062); type: functional;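 further: luciferase signal from cell-cell fusion driven by HIV-1 clade B AD8 Env; potency is for inhibitors of fusion seen as a drop in luminescence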
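Wherever EC50 is given: proteasome chymotrypsin-like activity measured in U2OS cells; potency is for inhibition of proteasome activity.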

Sequence of Sphingosine 1-phosphate receptor 4 (O95977 whole entry, the tested form may be a part): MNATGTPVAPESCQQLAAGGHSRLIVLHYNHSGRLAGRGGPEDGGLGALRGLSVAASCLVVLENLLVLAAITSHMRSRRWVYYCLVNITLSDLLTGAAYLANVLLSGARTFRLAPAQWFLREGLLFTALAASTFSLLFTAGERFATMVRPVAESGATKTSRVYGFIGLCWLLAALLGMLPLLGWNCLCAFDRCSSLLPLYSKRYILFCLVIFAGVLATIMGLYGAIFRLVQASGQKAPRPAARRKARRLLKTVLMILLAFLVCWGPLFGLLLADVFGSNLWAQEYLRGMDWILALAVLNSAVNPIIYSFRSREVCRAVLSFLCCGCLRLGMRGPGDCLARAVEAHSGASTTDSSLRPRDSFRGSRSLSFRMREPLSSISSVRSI
Sequence of Serine/threonine-protein kinase Chk1 (O14757 whole entry): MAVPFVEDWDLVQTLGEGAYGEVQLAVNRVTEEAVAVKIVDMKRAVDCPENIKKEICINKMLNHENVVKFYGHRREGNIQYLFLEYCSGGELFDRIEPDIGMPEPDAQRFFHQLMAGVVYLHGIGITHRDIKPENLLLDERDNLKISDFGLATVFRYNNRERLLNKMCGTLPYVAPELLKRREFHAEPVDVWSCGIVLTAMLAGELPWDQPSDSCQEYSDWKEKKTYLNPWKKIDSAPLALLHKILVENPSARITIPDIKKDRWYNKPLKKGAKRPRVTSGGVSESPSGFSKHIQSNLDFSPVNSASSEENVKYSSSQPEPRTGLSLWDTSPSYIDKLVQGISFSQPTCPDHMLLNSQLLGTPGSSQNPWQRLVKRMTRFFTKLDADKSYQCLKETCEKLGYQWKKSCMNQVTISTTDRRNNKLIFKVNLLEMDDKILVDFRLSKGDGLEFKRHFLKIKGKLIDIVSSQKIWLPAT
Sequence of Activin receptor type-1 (Q04771 whole entry): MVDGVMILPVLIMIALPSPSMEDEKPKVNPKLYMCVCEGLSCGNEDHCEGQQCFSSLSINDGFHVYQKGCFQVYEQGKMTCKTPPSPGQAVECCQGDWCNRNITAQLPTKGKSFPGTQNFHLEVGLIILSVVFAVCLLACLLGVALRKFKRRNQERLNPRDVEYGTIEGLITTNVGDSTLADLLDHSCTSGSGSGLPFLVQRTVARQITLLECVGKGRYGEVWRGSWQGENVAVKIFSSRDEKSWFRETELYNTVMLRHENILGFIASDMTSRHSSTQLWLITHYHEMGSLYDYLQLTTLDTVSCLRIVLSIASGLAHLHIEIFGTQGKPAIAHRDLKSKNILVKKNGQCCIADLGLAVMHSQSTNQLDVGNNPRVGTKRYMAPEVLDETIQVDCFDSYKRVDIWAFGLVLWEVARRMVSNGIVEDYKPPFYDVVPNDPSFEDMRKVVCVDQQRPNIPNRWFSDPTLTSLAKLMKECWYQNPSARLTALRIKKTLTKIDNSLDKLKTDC
Sequence of Orexin receptor type 2 (O43614 whole entry): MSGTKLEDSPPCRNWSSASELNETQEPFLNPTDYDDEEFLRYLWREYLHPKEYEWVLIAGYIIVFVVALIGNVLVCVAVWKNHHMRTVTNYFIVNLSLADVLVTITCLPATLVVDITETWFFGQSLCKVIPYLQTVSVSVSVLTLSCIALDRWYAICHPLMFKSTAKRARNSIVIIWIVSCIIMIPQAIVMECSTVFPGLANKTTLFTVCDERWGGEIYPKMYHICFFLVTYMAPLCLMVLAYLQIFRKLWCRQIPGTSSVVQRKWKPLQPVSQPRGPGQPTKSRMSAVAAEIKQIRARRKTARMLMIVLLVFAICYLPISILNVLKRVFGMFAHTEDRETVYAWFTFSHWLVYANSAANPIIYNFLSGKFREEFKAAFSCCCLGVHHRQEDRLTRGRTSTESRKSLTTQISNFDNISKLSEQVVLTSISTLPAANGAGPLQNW
Sequence of Ribosomal protein S6 kinase alpha-3 (P51812 whole entry): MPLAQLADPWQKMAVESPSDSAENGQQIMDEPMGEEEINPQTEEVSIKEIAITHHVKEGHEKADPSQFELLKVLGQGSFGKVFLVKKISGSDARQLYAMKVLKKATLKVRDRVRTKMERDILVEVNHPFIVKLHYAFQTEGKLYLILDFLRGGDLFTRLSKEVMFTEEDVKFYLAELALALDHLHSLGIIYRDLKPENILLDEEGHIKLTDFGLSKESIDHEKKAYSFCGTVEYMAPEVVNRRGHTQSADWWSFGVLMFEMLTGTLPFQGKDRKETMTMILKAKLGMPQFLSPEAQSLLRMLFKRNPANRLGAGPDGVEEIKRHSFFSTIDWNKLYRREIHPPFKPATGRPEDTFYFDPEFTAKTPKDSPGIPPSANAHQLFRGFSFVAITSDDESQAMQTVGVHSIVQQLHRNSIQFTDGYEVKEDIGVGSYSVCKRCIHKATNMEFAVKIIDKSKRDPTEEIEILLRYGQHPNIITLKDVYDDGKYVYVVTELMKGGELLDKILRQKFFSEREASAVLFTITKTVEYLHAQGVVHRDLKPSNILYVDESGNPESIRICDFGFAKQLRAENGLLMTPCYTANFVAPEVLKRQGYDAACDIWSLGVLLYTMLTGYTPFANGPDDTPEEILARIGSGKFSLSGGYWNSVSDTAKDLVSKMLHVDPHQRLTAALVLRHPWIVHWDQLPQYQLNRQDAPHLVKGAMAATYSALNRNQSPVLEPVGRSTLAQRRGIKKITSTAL
Sequence of Cyclin-dependent kinase 19 (Q9BWU1 whole entry): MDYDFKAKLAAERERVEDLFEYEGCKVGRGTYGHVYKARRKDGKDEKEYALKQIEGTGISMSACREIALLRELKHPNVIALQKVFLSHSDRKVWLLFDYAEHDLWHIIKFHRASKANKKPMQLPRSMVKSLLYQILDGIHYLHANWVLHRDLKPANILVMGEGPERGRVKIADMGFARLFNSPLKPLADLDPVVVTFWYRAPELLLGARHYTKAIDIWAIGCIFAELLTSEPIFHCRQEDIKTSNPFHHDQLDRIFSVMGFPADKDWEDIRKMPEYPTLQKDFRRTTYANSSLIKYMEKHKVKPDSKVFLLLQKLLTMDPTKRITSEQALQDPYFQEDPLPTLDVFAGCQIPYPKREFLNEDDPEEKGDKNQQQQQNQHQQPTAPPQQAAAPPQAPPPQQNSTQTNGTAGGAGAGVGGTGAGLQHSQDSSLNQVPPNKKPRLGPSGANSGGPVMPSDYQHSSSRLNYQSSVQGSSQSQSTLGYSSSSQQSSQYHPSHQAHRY
Sequence of Cyclin-dependent kinase 9 (P50750 whole entry): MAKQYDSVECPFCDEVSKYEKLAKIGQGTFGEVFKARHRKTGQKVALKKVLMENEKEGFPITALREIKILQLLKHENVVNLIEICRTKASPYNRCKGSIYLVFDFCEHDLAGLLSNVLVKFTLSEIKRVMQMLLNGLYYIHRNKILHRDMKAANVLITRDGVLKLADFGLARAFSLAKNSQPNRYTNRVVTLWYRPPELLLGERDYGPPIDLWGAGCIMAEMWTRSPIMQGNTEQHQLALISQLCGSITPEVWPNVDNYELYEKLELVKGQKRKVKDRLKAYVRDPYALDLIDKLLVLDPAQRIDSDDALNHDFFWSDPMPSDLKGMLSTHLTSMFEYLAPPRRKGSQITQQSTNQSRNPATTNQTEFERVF

SMILES: Cc1ccc(C(=O)OCn2ncc(Cl)c(Cl)c2=O)cc1
- IC50 [1]: 1.27 µM (active)
- IC50 (CHO): 1.53 µM (active)
- IC50 (Orexin receptor type 2): > 88.8 µM (inactive)

SMILES: O=C(O)CC(C(=O)O)N1C(=O)/C(=C/C=C/c2ccco2)SC1=S (stereo not drawn)
- IC50 [2]: 91.8 µM (active)
- IC50 [3]: > 1.51 µM (active)

SMILES: O=C(Nc1cccc(C2Nc3ccc4ccccc4c3C3C=CCC32)c1)c1ccc(F)cc1 (stereo not drawn)
- Ki [4]: 0.251 µM (active)
- Ki [5]: > 3.98 µM (inactive)

SMILES: Cc1ccc(-c2cc(-c3cc(Br)ccc3O)[nH]c(=O)c2C#N)s1
- Ki (Activin receptor type-1): > 3.98 µM (inactive)
- Ki [6]: > 3.16 µM (inactive)
- Ki [7]: > 100 µM (inactive)

SMILES: CCCC(=O)NC(c1cccs1)c1cc(Cl)c2cccnc2c1O (stereo not drawn)
- EC50 (cells): > 350 µM (not active)
- AC50 [8]: 25.1 µM (active)
- AC50 [9]: 6.73 µM (active)
